The values that follow come from publication PMC6253949, “The Inhibitory Action of Kohamaic Acid A Derivatives on Mammalian DNA Polymerase β” (Molecules, 2008).

Structures are written as SMILES.

For the test, the target named is Calf DNA polymerase α (Bos taurus, UniProt A0AAA9THK8). Briefly: DNA polymerase assay, calf pol α. It counts as biochemical. An excerpt: Pol α was purified from calf thymus by immuno-affinity column chromatography as described by Tamai et al.. Recombinant rat pol β was purified from E. coli JMpβ5 as described by Date et al.. The human pol γ catalytic gene was cloned into pFastBac. Histidine-tagged enzyme was expressed using the BAC-TO-BAC HT Baculovirus Expression System according to the supplier's manual (LIFE TECHNOLOGIES, MD, USA) and purified using ProBoundresin (Invitrogen Japan, Tokyo, Japan). Human pols δ and ε were purified by the nuclear fractionation of human peripheral blood cancer cells (Molt-4) using the second subunit of pols δ and ε-conjugated affinity column chromatography, respectively. Recombinant human pols η and ι tagged with His6 at their C-terminal were expressed in SF9 insect cells using the baculovirus expression system, and were purified as described previously. A truncated form of pol κ (i.e., hDINB1DC) with 6 x His-tags attached at the C-terminal was overproduced using the BAC-to-BAC Baculovirus Expression System kit (GIBCO BRL, MD, USA) and purified as described previously. Recombinant human His-pol λ was overexpressed and purified according to a method described previously. Fish pol δ was purified from the testis of cherry salmon (Oncorhynchus masou). Pol I (α-like) from a higher plant, cauliflower inflorescence, was purified according to the methods outlined by Sakaguchi et al.. The Klenow fragment of pol I from E. coli was purchased from Worthington Biochemical Corp. (Freehold, NJ, USA). Taq pol, T4 pol, T7 RNA polymerase and T4 polynucleotide kinase were purchased from Takara (Kyoto, Japan). Bovine pancreas deoxyribonuclease I (DNase I) was obtained from Stratagene Cloning Systems (La Jolla, CA, USA).
The reaction mixtures for pol α, pol β, fish pol δ, plant pol I (α-like) and prokaryotic pols were described previously, and those for pol γ, and pols δ and ε were as described by Umeda et al. and Ogawa et al., respectively. The reaction mixtures for pols η, ι and κ were the same as for pol α, and the reaction mixture for pol λ was the same as that for pol β.
For pols, poly(dA)/oligo(dT)12-18 (A/T = 2/1) and dTTP were used as the DNA template-primer and nucleotide (i.e., dNTP) substrate, respectively. KA-A analogues (i.e., compounds 1–12) were dissolved in distilled dimethyl sulfoxide (DMSO) at various concentrations and sonicated for 30 sec. Aliquots of 4 μL of sonicated samples were mixed with 16 μL of each enzyme (final amount 0.05 units) in 50 mM Tris-HCl (pH 7.5) containing 1 mM dithiothreitol, 50% glycerol and 0.1 mM EDTA, and kept at 0 °C for 10 min. […] Activity without the inhibitor was considered 100%, and the remaining activity at each concentration of the inhibitor was determined relative to this value. […]

Calf DNA polymerase α, sequence (Q58D13 whole entry): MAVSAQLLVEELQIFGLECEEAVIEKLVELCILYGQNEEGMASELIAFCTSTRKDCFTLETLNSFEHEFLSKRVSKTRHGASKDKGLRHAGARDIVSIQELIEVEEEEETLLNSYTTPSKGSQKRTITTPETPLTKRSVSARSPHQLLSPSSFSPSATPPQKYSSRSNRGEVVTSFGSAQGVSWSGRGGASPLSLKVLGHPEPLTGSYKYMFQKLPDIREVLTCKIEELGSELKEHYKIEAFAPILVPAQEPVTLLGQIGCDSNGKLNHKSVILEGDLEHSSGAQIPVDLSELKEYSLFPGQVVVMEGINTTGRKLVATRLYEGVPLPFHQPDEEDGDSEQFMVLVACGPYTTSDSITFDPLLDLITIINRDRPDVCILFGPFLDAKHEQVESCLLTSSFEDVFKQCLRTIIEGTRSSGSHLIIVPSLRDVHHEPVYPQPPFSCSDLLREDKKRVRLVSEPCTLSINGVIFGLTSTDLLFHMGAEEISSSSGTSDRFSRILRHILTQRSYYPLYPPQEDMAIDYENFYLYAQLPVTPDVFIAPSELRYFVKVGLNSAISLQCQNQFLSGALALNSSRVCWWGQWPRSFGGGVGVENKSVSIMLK
Calf DNA polymerase α, sequence (A0AAA9THK8 entry or part of it): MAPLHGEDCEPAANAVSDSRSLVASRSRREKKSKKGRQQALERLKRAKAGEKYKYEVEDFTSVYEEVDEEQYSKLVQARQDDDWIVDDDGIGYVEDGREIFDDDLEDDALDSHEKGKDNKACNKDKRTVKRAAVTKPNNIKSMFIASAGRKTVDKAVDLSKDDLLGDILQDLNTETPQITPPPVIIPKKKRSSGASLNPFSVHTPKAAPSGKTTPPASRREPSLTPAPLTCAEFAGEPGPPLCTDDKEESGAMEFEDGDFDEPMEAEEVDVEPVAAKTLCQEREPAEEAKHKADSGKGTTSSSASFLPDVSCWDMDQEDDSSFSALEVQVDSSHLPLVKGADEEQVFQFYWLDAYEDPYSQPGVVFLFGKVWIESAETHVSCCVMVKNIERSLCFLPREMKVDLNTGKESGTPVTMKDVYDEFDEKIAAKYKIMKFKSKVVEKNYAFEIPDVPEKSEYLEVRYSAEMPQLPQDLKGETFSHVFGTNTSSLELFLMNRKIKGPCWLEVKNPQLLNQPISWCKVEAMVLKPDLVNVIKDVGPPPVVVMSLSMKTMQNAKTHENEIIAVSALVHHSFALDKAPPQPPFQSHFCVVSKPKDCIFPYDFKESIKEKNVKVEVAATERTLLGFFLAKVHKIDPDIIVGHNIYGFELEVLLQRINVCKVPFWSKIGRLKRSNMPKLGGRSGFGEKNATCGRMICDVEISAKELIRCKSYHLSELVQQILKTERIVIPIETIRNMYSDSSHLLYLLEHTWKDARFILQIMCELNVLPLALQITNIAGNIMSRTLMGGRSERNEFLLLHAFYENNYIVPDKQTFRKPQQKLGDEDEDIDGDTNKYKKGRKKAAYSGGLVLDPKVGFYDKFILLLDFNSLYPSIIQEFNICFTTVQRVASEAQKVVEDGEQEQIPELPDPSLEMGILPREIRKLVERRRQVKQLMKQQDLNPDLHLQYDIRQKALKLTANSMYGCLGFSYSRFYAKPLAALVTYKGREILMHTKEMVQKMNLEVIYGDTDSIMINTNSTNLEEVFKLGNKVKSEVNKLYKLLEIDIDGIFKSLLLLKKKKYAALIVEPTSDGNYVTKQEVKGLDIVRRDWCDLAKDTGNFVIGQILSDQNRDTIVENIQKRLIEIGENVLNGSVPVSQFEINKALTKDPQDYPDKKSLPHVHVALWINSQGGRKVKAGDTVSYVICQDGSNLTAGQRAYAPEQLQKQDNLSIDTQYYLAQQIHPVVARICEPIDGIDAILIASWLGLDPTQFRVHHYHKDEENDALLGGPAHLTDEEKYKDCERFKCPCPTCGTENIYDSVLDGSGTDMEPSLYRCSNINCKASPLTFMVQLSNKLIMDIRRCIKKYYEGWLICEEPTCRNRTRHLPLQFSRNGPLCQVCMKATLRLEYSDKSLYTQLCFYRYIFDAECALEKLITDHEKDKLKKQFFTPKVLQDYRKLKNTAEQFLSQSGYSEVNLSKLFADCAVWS
Calf DNA polymerase α, sequence (A0JNF4 entry or part of it, further chain): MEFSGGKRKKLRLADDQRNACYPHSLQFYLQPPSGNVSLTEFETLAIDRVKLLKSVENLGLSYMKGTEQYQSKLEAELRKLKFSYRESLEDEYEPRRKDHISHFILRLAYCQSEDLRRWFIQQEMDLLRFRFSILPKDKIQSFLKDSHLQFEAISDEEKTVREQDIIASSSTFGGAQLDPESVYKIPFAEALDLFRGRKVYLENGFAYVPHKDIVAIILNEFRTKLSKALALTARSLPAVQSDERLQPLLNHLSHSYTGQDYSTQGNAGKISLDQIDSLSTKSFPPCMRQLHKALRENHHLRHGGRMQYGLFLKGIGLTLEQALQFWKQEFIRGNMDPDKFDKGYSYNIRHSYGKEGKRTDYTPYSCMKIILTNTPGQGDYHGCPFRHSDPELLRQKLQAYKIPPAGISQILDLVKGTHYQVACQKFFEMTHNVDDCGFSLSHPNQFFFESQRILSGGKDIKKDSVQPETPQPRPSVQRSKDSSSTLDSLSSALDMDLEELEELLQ
Calf DNA polymerase α, sequence (A0A3Q1MF00 entry or part of it, further chain): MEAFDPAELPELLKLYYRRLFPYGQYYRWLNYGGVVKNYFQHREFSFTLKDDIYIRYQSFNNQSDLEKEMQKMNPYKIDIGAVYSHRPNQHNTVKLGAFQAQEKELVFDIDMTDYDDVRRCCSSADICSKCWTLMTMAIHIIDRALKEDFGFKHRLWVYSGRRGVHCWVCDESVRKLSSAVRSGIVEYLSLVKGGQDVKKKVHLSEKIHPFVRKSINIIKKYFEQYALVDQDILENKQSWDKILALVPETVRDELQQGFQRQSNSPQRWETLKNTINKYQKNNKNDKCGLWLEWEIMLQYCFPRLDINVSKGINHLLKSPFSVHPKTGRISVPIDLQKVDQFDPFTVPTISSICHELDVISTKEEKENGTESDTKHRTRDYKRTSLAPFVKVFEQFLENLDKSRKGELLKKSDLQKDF

For `CC1=CC[C@H]2C(C)(C)CCC[C@]2(C)[C@H]1CCCCCCCCCCCCCCCCC(=O)O` (relative stereo) [compound 11, (1S*,4aS*,8aS*)-17-(1,4,4a,5,6,7,8,8a-octahydro-2,5,5,8a-tetramethylnaphthalen-1-yl)heptadecanoic acid], the “Inhibitory effect on pol α compared with KA-A” value (10 and 100 μM of compound (Figure 2A)) was “strongest inhibitory effect”. For the same molecule, where the note is “poly(dA)/oligo(dT)12-18 and dTTP, 0.05 units enzyme, read-out: IC50 values”, the IC50 – broadly, the concentration at which inhibition is half-maximal – was 4.21 ± 0.21 µM.
